Experiments:
Format in all cases: biochemical
[1] = target: T1, MMP-2FL (full-length Gelatinase A) (Homo sapiens, UniProt P08253); assay: Thiopeptolide hydrolysis inhibition assay, MMP-2FL; conditions: thiopeptolide substrate, HEPES pH 7.0, 22° C.
T1 sequence (P08253 110-660): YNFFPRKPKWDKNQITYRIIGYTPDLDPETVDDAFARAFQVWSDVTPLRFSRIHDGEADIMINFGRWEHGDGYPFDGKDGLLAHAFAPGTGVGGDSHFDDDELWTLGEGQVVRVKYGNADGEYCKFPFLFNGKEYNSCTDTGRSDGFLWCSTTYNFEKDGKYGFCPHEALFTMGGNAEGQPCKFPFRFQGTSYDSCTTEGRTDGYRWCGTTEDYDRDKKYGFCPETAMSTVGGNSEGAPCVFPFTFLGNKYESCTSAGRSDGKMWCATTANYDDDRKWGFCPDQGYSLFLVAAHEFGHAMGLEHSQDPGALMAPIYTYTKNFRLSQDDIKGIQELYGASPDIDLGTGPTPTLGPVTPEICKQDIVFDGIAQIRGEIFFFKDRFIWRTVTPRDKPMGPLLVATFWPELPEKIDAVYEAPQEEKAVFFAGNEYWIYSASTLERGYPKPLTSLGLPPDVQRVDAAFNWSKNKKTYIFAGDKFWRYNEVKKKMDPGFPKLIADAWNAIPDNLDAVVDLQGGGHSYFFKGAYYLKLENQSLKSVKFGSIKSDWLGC
Text: (§1) The assays measure the amount by which a test compound reduces the hydrolysis of a thiopeptolide substrate catalyzed by a matrix metalloproteinase enzyme. Such assays are described in detail by Ye et al., Biochemistry, 1992;31(45):11231-11235, hereby incorporated herein by reference.
(§2) Thiopeptolide substrates show virtually no decomposition or hydrolysis at or below neutral pH in the absence of a matrix metalloproteinase enzyme. A typical thiopeptolide substrate commonly utilized for assays is Ac-Pro-Leu-Gly-thioester-Leu-Leu-Gly-OEt. A 100 μL assay mixture will contain 50 mM of N-2-hydroxyethylpiperazine-N′-2-ethanesulfonic acid buffer (“HEPES”) at pH 7.0, 10 mM CaCl2, 100 μM thiopeptolide substrate, and 1 mM 5,5′-dithio-bis-(2-nitrobenzoic acid) (DTNB). The thiopeptolide substrate concentration may be varied from, for example, 10 to 800 μM, in order to obtain Km and Kcat values. The change in absorbance at 405 nm is monitored on a Thermo Max microplate reader (Molecular Devices, Menlo Park, Calif.) at room temperature (22° C.). The calculation of the amount of hydrolysis of the thiopeptolide substrate is based on E412=13600 M^−1 cm^−1 for the DTNB-derived product 3-carboxy-4-nitrothiophenoxide. Assays are carried out with and without matrix metalloproteinase inhibitor compounds, and the amount of hydrolysis is compared for a determination of inhibitory activity of the test compounds.
(§3) Several representative compounds have been evaluated for their ability to inhibit various matrix metalloproteinase enzymes. In Table 1, MMP-1FL refers to full-length interstitial collagenase; MMP-2FL refers to full-length Gelatinase A; MMP-3CD refers to the catalytic domain of stromelysin-1; MMP-7FL refers to full-length matrilysin; MMP-9FL refers to full-length Gelatinase B; MMP-13CD refers to the catalytic domain of collagenase 3; and MMP-14CD refers to the catalytic domain of MMP-14. Test compounds were evaluated at various concentrations, in order to determine their respective IC50 values, the micromolar concentration of compound required to cause a 50% inhibition of the catalytic activity of the respective enzyme.

[2] = target: MMP-9FL (full-length Gelatinase B) (Homo sapiens, UniProt P14780); assay: Thiopeptolide hydrolysis inhibition assay, MMP-9FL; conditions: thiopeptolide substrate, HEPES pH 7.0, 22° C.
Sequence of MMP-9FL (full-length Gelatinase B) (P14780 94-707, species assumed): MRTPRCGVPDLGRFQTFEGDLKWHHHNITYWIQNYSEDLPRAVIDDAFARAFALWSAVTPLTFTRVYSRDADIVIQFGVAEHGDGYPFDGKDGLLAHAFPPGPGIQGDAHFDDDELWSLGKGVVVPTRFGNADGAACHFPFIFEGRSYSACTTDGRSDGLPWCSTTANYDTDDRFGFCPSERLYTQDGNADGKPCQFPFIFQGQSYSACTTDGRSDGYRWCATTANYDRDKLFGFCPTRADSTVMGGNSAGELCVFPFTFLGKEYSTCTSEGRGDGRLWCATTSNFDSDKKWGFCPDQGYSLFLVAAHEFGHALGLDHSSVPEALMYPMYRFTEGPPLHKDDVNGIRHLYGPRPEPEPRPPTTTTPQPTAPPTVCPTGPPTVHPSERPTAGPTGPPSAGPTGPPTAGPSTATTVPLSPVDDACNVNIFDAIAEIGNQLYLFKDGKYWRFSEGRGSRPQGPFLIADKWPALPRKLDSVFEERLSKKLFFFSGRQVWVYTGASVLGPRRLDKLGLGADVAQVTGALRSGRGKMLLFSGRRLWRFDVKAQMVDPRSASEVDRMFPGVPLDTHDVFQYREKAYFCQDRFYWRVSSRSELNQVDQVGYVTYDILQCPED
Text: as §1, §2, §3

[3] = target: MMP-3CD (catalytic domain of stromelysin-1) (Homo sapiens, UniProt P08254); assay: Thiopeptolide hydrolysis inhibition assay, MMP-3CD; conditions: thiopeptolide substrate, MES buffer pH 6.0
Sequence of MMP-3CD (catalytic domain of stromelysin-1) (P08254 100-272 limits assumed): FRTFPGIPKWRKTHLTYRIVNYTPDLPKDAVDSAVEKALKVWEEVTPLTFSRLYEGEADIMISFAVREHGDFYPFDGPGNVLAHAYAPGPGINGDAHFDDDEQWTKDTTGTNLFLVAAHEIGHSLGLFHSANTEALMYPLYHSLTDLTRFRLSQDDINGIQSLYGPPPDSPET
Text: as §1, §2
It should be appreciated that the assay buffer used with MMP-3CD is 50 mM of N-morpholinoethanesulfonate (“MES”) at pH 6.0 rather than the HEPES buffer at pH 7.0 described above.
as §3

[4] = target: T2, MMP-1FL (full-length interstitial collagenase) (Homo sapiens, UniProt P03956); assay: Thiopeptolide hydrolysis inhibition assay, MMP-1FL; conditions: thiopeptolide substrate, HEPES pH 7.0, 22° C.
T2 sequence (P03956 100-469): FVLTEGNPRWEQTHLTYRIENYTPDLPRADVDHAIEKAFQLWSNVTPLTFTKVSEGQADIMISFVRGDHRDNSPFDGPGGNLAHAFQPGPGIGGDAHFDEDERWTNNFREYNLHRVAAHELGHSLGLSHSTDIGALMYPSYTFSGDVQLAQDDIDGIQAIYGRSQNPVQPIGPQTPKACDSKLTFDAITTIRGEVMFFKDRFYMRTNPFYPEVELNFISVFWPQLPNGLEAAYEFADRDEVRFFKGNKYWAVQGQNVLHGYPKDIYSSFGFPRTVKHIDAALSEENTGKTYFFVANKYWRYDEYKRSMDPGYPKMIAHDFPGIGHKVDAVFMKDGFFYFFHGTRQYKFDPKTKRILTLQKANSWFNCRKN
Text: as §1, §2, §3

[5] = target: T3, MMP-7FL (full-length matrilysin) (Homo sapiens, UniProt P09237); assay: Thiopeptolide hydrolysis inhibition assay, MMP-7FL; conditions: thiopeptolide substrate, HEPES pH 7.0, 22° C.
T3 sequence (P09237 95-267): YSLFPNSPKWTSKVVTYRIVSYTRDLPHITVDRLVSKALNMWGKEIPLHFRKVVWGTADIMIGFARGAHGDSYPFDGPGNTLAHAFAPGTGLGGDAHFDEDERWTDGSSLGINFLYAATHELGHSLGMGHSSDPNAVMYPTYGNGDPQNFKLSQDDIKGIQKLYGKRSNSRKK
Text: as §1, §2, §3

[6] = target: MMP-13CD (catalytic domain of collagenase 3) (Homo sapiens, UniProt P45452); assay: Thiopeptolide hydrolysis inhibition assay, MMP-13CD; conditions: thiopeptolide substrate, HEPES pH 7.0, 22° C.
Text: as §1, §2, §3

[7] = target: MMP-14CD (catalytic domain of MMP-14) (Homo sapiens, UniProt P50281); assay: Thiopeptolide hydrolysis inhibition assay, MMP-14CD; conditions: thiopeptolide substrate, HEPES pH 7.0, 22° C.
Text: as §1, §2, §3

SMILES	IC50 [1]	IC50 [2]	IC50 [3]	IC50 [4]	IC50 [5]	IC50 [6]	IC50 [7]
CC1(C)SCN(S(=O)(=O)c2ccc3c(c2)oc2ccccc23)[C@@H]1C(=O)O [Example 3, R-3-(Dibenzofuran-3-sulfonyl)-5,5-dimethyl-thiazolidine-4-carboxylic Acid]	9500 nM	150000 nM	2500 nM	100000 nM	100000 nM	23000 nM	10000 nM
CC1(C)SCN(S(=O)(=O)c2ccc3c(c2)oc2ccccc23)[C@@H]1C(=O)NO [Example 4, R-3-(Dibenzofuran-3-sulfonyl)-5,5-dimethyl-thiazolidine-4-carboxylic Acid Hydroxyamide]	3900 nM	18000 nM	3200 nM	6900 nM	59000 nM	1400 nM	11000 nM
CC1(C)SCCN(S(=O)(=O)c2ccc3c(c2)Cc2ccccc2-3)[C@H]1C(=O)O [Example 5, (S)-4-(9H-Fluorene-2-sulfonyl)-2,2-dimethyl-thiomorpholine-3-carboxylic Acid]	500 nM	100000 nM	130 nM	23000 nM	100000 nM	5100 nM	840 nM
CC1(C)SCCN(S(=O)(=O)c2ccc3c(c2)Cc2ccccc2-3)[C@H]1C(=O)NO [Example 6, (S)-4-(9H-Fluorene-2-sulfonyl)-2,2-dimethyl-thiomorpholine-3-carboxylic Acid Hydroxyamide]	24 nM	550 nM	8 nM	140 nM	880 nM	4 nM	63 nM
CC1(C)SCCN(S(=O)(=O)c2ccc3oc4cc(Br)ccc4c3c2)[C@H]1C(=O)O [Example 9, (S)-4-(7-Bromo-dibenzofuran-2-sulfonyl)-2,2-dimethyl-thiomorpholine-3-carboxylic Acid]	4000 nM	65000 nM	20 nM	70000 nM	1200 nM	920 nM	3800 nM
COC(=O)c1ccc2c(c1)oc1ccc(S(=O)(=O)N3CCSC(C)(C)[C@@H]3C(=O)O)cc12 [Example 11, (S)-4-(7-Methoxycarbonyl-dibenzofuran-2-sulfonyl)-2,2-dimethyl-thiomorpholine-3-carboxylic Acid]	5200 nM	69000 nM	94 nM	100000 nM	3500 nM	4600 nM	20000 nM
CC1(C)SCCN(S(=O)(=O)c2ccc3oc4cc([N+](=O)[O-])ccc4c3c2)[C@H]1C(=O)O [Example 13, (S)-2,2-Dimethyl-4-(7-nitro-dibenzofuran-2-sulfonyl)-thiomorpholine-3-carboxylic Acid]	33000 nM	100000 nM	1000 nM	60000 nM	1600 nM	2700 nM	15000 nM
CC1(C)[C@H](C(=O)NO)N(S(=O)(=O)c2ccc3oc4ccccc4c3c2)CCS1(=O)=O [Example 15, (S)-4-(Dibenzofuran-2-sulfonyl)-2,2-dimethyl-1,1-dioxo-thiomorpholine-3-carboxylic Acid Hydroxyamide]	250 nM	1800 nM	8 nM	33 nM	32 nM	13 nM	98 nM

Now from value to compound:

IC50 [1]	IC50 [2]	IC50 [3]	IC50 [4]	IC50 [5]	IC50 [6]	IC50 [7]	SMILES
74 nM	22500 nM	41 nM	1420 nM	55000 nM	970 nM	64 nM	CC1(C)SCCN(S(=O)(=O)c2ccc3c(c2)oc2ccccc23)[C@H]1C(=O)O [Example 1, (S)-4-(Dibenzofuran-3-sulfonyl)-2,2-dimethyl-thiomorpholine-3-carboxylic Acid]
15 nM	210 nM	11 nM	13 nM	200 nM	4 nM	26 nM	CC1(C)SCCN(S(=O)(=O)c2ccc3c(c2)oc2ccccc23)[C@H]1C(=O)NO [Example 2, (S)-4-(Dibenzofuran-3-sulfonyl)-2,2-dimethyl-thiomorpholine-3-carboxylic Acid Hydroxyamide]
3900 nM	100000 nM	210 nM	59000 nM	16000 nM	11000 nM	4000 nM	CC1(C)SCCN(S(=O)(=O)c2ccc3oc4ccccc4c3c2)[C@H]1C(=O)O [Example 7, (S)-4-(Dibenzofuran-2-sulfonyl)-2,2-dimethyl-thiomorpholine-3-carboxylic Acid]
15 nM	260 nM	9 nM	17 nM	28 nM	3 nM	40 nM	CC1(C)SCCN(S(=O)(=O)c2ccc3oc4ccccc4c3c2)[C@H]1C(=O)NO [Example 8, (S)-4-(Dibenzofuran-2-sulfonyl)-2,2-dimethyl-thiomorpholine-3-carboxylic Acid Hydroxyamide]
7 nM	66 nM	4 nM	42 nM	31 nM	2 nM	12 nM	CC1(C)SCCN(S(=O)(=O)c2ccc3oc4cc(Br)ccc4c3c2)[C@H]1C(=O)NO [Example 10, (S)-4-(7-Bromo-dibenzofuran-2-sulfonyl)-2,2-dimethyl-thiomorpholine-3-carboxylic Acid Hydroxyamide]
17 nM	47 nM	6 nM	150 nM	29 nM	5 nM	95 nM	COC(=O)c1ccc2c(c1)oc1ccc(S(=O)(=O)N3CCSC(C)(C)[C@@H]3C(=O)NO)cc12 [Example 12, (S)-4-(7-Methoxycarbonyl-dibenzofuran-2-sulfonyl)-2,2-dimethyl-thiomorpholine-3-carboxylic Acid Hydroxyamide]
22 nM	190 nM	5 nM	12 nM	38 nM	2 nM	24 nM	CC1(C)SCCN(S(=O)(=O)c2ccc3oc4cc([N+](=O)[O-])ccc4c3c2)[C@H]1C(=O)NO [Example 14, (S)-2,2-Dimethyl-4-(7-nitro-dibenzofuran-2-sulfonyl)-thiomorpholine-3-carboxylic Acid Hydroxyamide]
